Among the data in patent publication US8362000B2, “Azetidinyl diamides as monoacylglycerol lipase inhibitors” (Janssen Pharmaceutica NV, priority 2009, dated 2013) are Kd and IC50 values, retold here.

Molecules are shown by their SMILES. Numbering of substitutions follows the chain as printed. Where two headings read alike, the source gives them in different places.

One assay deals with T1, mutant MGL (Homo sapiens, UniProt Q99685, L169S/L176S).
T1 sequence (Q99685 1-303 L169S/L176S): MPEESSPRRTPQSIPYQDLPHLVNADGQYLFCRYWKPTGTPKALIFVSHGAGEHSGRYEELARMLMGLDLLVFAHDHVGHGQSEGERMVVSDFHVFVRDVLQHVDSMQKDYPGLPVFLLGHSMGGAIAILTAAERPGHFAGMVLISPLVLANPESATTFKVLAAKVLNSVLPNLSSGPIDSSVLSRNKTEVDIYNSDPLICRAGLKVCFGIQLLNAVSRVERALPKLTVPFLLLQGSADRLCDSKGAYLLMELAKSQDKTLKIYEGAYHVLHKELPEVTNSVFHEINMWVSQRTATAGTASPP
Kind of assay: MGL ThermoFluor assay - mutant. In kind it is binding. In general terms: DSF heats the sample and reads unfolding from a dye or from intrinsic fluorescence.

Assay [1] deals with T2, purified wild type MGL (wt-MGLL 6H-11-313) (Homo sapiens, UniProt Q99685).
T2 sequence (Q99685 1-303): T1 sequence (Q99685 1-303 L169S/L176S) with S169L, S176L

Setting [2] is: ThermoFluor concentration-response, read-out: MGL mutant ThermoFluor Kd.
The mark [3] stands for this setting: ThermoFluor, compound concentration measured by qNMR, read-out: MGL mutant ThermoFluor qKd (μM) (using qNMR conc.).
[4] abbreviates: ThermoFluor, compound concentration measured by qNMR, read-out: MGL mutant ThermoFluor qKd (using qNMR conc.).
The mark [5] stands for this setting: ThermoFluor thermal stability binding assay, read-out: MGL mutant ThermoFluor Kd.

Regarding `COc1cccc2c(C)c(C(=O)N3CC(N4CCN(C(=O)c5ccccc5)CC4)C3)[nH]c12` [Cpd 526], at mutant MGL (setting [2]), the Kd was found to be 4.98 µM. The concentration for half-maximal inhibition (IC50) (as a rule, the point on the concentration scale where inhibition reaches its midpoint) in assay [1] was determined as 8100 nM.
The like results for `O=C(c1ccc2c(c1)C(Cc1cccc(C(F)(F)F)c1)(Cc1cccc(C(F)(F)F)c1)C(=O)N2)N1CC(N2CCN(C(=O)c3nccs3)CC2)C1` [Cpd 992] were, in that order, 0.561 µM and 7760 nM.
On to `O=C(Nc1ccc(C(=O)N2CC(N3CCN(C(=O)c4nccs4)CC3)C2)cc1)C1CCCCC1` [Cpd 709], for which the Kd at mutant MGL (setting [2]) is 0.015 µM. In assay [1], this compound came in with an IC50 of 118 nM.
In the case of `O=C(c1cscn1)N1CC(N2CCN(C(=O)c3ccc(-c4ccccc4)cc3)C(Cc3ccccc3)C2)C1` (stereo not drawn) [Cpd 1284, 2-Benzyl-1-(biphenyl-4-ylcarbonyl)-4-[1-(1,3-thiazol-4-ylcarbonyl)azetidin-3-yl]piperazine], at mutant MGL (setting [2]), the Kd came out at 0.041 µM. Further, the IC50 in assay [1] amounted to 2290 nM.
In the case of `O=C(c1ccc2nn(-c3cccc(OC(F)(F)F)c3)cc2c1)N1CC(N2CCN(C(=O)c3nccs3)CC2)C1` [Cpd 1376], the Kd on mutant MGL (setting [3]) is 0.013 µM. This compound returned an IC50 in assay [1] of under 5 nM.
Regarding `N#Cc1ccc(N2CCC(C(=O)N3CC(N4CCN(C(=O)c5nccs5)CC4)C3)CC2)cc1` [Cpd 646], the Kd at mutant MGL (setting [2]) stood at 1.61 µM. The same compound returned a concentration for half-maximal inhibition (IC50) in assay [1] of 7160 nM.
On to `Cc1nc2cc(C(=O)N3CC(N4CCN(C(=O)c5ccccc5)CC4)C3)ccc2n1C1CCCCC1` [Cpd 37, 1-Cyclohexyl-2-methyl-5-({3-[4-(phenylcarbonyl)piperazin-1-yl]azetidin-1-yl}carbonyl)-1H-benzimidazole], for which the Kd on mutant MGL (setting [2]) was found to be 0.1 µM. For the same compound, in assay [1], the IC50 worked out at 5990 nM.
On to `O=C(c1ccc2[nH]ccc2c1)N1CC(N2CCN(C(=O)c3ccc[nH]3)CC2)C1` [Cpd 856], for which the Kd on mutant MGL (setting [3]) is 0.855 µM. In assay [1], this compound displayed an IC50 of 8490 nM.
For the compound `O=C(c1ccc(Oc2cccc(F)n2)cc1)N1CC(N2CCN(C(=O)c3nccs3)CC2)C1` [Cpd 715], the Kd at mutant MGL (setting [2]) is 0.167 µM. The compound further came in with an IC50 in assay [1] of 135 nM.
On to `Cc1c(C(=O)N2CCN(C3CN(C(=O)c4ccc[nH]4)C3)CC2)sc2cc(C(F)(F)F)ccc12` [Cpd 731], for which, at mutant MGL (setting [2]), the Kd is 0.016 µM. In assay [1], the IC50 came to 238 nM.
With `Cc1cn(-c2cccc(F)c2)c2ccc(C(=O)N3CC(N4CCN(C(=O)c5ccccc5)CC4)C3)cc12` [Cpd 583], the Kd at mutant MGL (setting [3]) is 0.051 µM. In assay [1], half-maximal inhibition (IC50) required 104 nM.
Take `O=C(c1ccccc1)N1CC(N2CCN(C(=O)c3cc4cc(C(F)(F)F)ccc4s3)C(c3ccccc3)C2)C1` (stereo not drawn) [Cpd 517]: the Kd at mutant MGL (setting [2]) amounted to 0.05 µM. Besides, in assay [1], inhibition was half-maximal at 1340 nM (IC50).
On to `O=C(c1ccc2c(ccn2Cc2cccnc2)c1)N1CC(N2CCN(C(=O)c3nccs3)CC2)C1` [Cpd 1048], for which, on mutant MGL (compound concentration measured by qNMR, read-out: MGL mutant ThermoFluor qKd (using qNMR conc.)), the Kd is 0.146 µM. The same compound gave an IC50 in assay [1] of 695 nM.
Consider `Cc1c(Cc2ccc(C(F)(F)F)cc2)cccc1C(=O)N1CC(N2CCN(C(=O)c3ccc[nH]3)CC2)C1` [Cpd 1013], for which, on mutant MGL (setting [2]), the Kd came to 0.76 µM. In addition, in assay [1], the 50% inhibitory concentration (IC50) stood at 161 nM.
Consider `O=C(c1ccc2nc(C(F)(F)F)cc(Cl)c2c1)N1CC(N2CCN(C(=O)c3cscn3)CC2)C1` [Cpd 848], for which the Kd at mutant MGL (setting [2]) is 0.833 µM. In assay [1], this compound yielded an IC50 of 6900 nM.
As for `O=C(c1ccc2nn(-c3cccc(OC(F)(F)F)c3)cc2c1)N1CC(N2CCN(C(=O)c3cscn3)CC2)C1` [Cpd 1422], on mutant MGL (setting [3]), the Kd amounted to 0.195 µM. For the same compound, the IC50 in assay [1] is 14 nM.
In the case of `O=C(c1ccc(-c2cccc(C(F)(F)F)c2)cc1)N1CC(N2CCN(C(=O)C3CC3)CC2)C1` [Cpd 1057], the Kd at mutant MGL (setting [3]) worked out at 0.016 µM. In assay [1], this compound displayed an IC50 of 6 nM.
`Cc1c(C(=O)N2CC(N3CCN(C(=O)c4nccs4)CC3)C2)oc2c(F)cccc12` [Cpd 794]: at mutant MGL (setting [2]), the Kd worked out at 2.11 µM. This compound yielded an IC50 in assay [1] of 1470 nM.
`O=C(c1ccccc1)N1CCN(C2CN(C(=O)c3ccc4c(ccn4-c4ccc(Cl)c(F)c4)c3)C2)CC1` [Cpd 568]: the Kd at mutant MGL (setting [3]) is 0.099 µM. Further, in assay [1], inhibition was half-maximal at 72 nM (IC50).
Consider `O=C(c1sc2cc(C(F)(F)F)ccc2c1Cl)N1CC(N2CCN(C(=O)C(F)(F)F)CC2)C1` [Cpd 656, 1-(1-{[3-Chloro-6-(trifluoromethyl)-1-benzothiophen-2-yl]carbonyl}azetidin-3-yl)-4-(trifluoroacetyl)piperazine], for which, on mutant MGL (setting [4]), the Kd is 0.101 µM. This compound came in with a concentration for half-maximal inhibition (IC50) in assay [1] of 8 nM.
As for `O=C(c1ccc(COCC(F)(F)F)cc1)N1CC(N2CCN(C(=O)c3nccs3)CC2)C1` [Cpd 694], the Kd at mutant MGL (setting [4]) amounted to 0.048 µM. For the same compound, the IC50 in assay [1] turned out to be 47 nM.
Consider `O=C(c1cscn1)N1CCN(C2CN(C(=O)c3cc(-c4ccccc4)n(-c4ccccc4)n3)C2)CC1` [Cpd 1261], for which the Kd at mutant MGL (setting [5]) came out at 0.831 µM. 932 nM corresponded to half-maximal inhibition in assay [1] (IC50).
`O=C(c1ccc2c(ccn2-c2ccc(F)cc2)c1)N1CC(N2CCN(C(=O)c3ncco3)CC2)C1` [Cpd 1426]: the Kd on mutant MGL (setting [3]) was 0.029 µM. The same compound gave an IC50 in assay [1] of under 5 nM.
`O=C(c1nc2cc(F)ccc2[nH]1)N1CC(N2CCN(C(=O)c3nccs3)CC2)C1` [Cpd 1443]: on mutant MGL (setting [5]), the Kd was over 31.2 µM. Further, the IC50 in assay [1] was over 16700 nM.
Turning to `COc1cccc2c(C)c(C(=O)N3CCN(C4CN(C(=O)c5cscn5)C4)CC3)[nH]c12` [Cpd 857], the Kd on mutant MGL (setting [2]) amounted to 3.33 µM. Besides, in assay [1], 8720 nM corresponded to half-maximal inhibition (IC50).
On to `O=C(c1ccccc1)N1CCN(C2CN(C(=O)c3cc4cc(-c5ccccc5)ccc4o3)C2)CC1` [Cpd 605], for which the Kd on mutant MGL (setting [5]) came out at 1.89 µM. The compound also displayed an IC50 in assay [1] of 1860 nM.
With `O=C(c1ccc2nc(-c3ccccn3)sc2c1)N1CC(N2CCN(C(=O)c3nccs3)CC2)C1` [Cpd 1165], the Kd at mutant MGL (setting [3]) turned out to be 0.09 µM. Besides, the IC50 in assay [1] stood at 51 nM.
Take `O=C(c1ccc[nH]1)N1CCN(C2CN(C(=O)c3cc4ccc(C(F)(F)F)nc4o3)C2)CC1` [Cpd 1446]: the Kd on mutant MGL (setting [5]) amounted to 62.5 µM. The same compound gave an IC50 in assay [1] of over 16700 nM.
Take `O=C(c1nccs1)N1CCN(C2CN(C(=O)c3cn(-c4ccc(F)cc4)c4ccccc34)C2)CC1` [Cpd 1224]: the Kd at mutant MGL (setting [3]) is 0.189 µM. Moreover, half-maximal inhibition in assay [1] (IC50) required 270 nM.
For the compound `COc1ccc2c(C)c(C(=O)N3CC(N4CCN(C(=O)c5cscn5)CC4)C3)oc2c1` [Cpd 850], on mutant MGL (setting [2]), the Kd came to 1 µM. Moreover, the IC50 in assay [1] amounted to 7280 nM.
On the same counts, the results for `O=C(c1ccc2c(c1)C(Cc1cccc(C(F)(F)F)c1)(Cc1cccc(C(F)(F)F)c1)C(=O)N2Cc1cccc(C(F)(F)F)c1)N1CC(N2CCN(C(=O)c3nccs3)CC2)C1` [Cpd 1430, 5-({3-[4-(1,3-Thiazol-2-ylcarbonyl)piperazin-1-yl]azetidin-1-yl}carbonyl)-1,3,3-tris[3-(trifluoromethyl)benzyl]-1,3-dihydro-2H-indol-2-one] are 50 µM and 9890 nM.
As for `O=C(c1ccc(-c2cccc(C(F)(F)F)c2)cc1)N1CC(N2CCN(C(=O)c3cocn3)CC2)C1` [Cpd 1094], the Kd at mutant MGL (setting [3]) turned out to be 0.012 µM. Half-maximal inhibition in assay [1] (IC50) required 11 nM.
Consider `Cc1ccc2sc(C(=O)N3CC(N4CCN(C(=O)c5cscn5)CC4)C3)c(C(F)(F)F)c2c1` [Cpd 737, 1-(1-{[5-Methyl-3-(trifluoromethyl)-1-benzothiophen-2-yl]carbonyl}azetidin-3-yl)-4-(1,3-thiazol-4-ylcarbonyl)piperazine], for which the Kd at mutant MGL (setting [2]) amounted to 0.031 µM. Half-maximal inhibition in assay [1] (IC50) required 285 nM.
As to `O=C(c1ccc(-c2cccc(C(F)(F)F)c2)cc1)N1CC(N2CCN(C(=O)c3ccon3)CC2)C1` [Cpd 1145], the Kd at mutant MGL (setting [3]) worked out at 0.061 µM. In assay [1], this compound registered an IC50 of 31 nM.
In the case of `O=C(c1nccs1)N1CC(N2CCN(C(=O)c3cc4cc(C(F)(F)F)ccc4s3)C(c3ccccc3)C2)C1` (stereo not drawn) [Cpd 804], the Kd at mutant MGL (setting [2]) is 0.105 µM. The same compound came in with an IC50 in assay [1] of 1990 nM.
With `O=C(c1ccc(-c2ccccc2)cc1)N1CC(N2CCN(C(=O)C3CCC3)CC2)C1` [Cpd 1232], at mutant MGL (setting [5]), the Kd worked out at 0.345 µM. This compound yielded an IC50 in assay [1] of 326 nM.
Take `O=C(c1cc2ccc(C(F)(F)F)cc2[nH]1)N1CC(N2CCN(C(=O)c3nccs3)CC2)C1` [Cpd 756]: at mutant MGL (setting [2]), the Kd came out at 0.383 µM. This compound gave an IC50 in assay [1] of 519 nM.
As for `O=C(c1cc2cc(C(F)(F)F)ccc2[nH]1)N1CCN(C2CN(C(=O)c3nccs3)C2)CC1` [Cpd 747], the Kd at mutant MGL (setting [2]) is 0.111 µM. Besides, in assay [1], the midpoint of inhibition, the IC50, lay at 377 nM.
Turning to `O=C(c1cscn1)N1CCN(C2CN(C(=O)c3cc4ccc(C(F)(F)F)cc4[nH]3)C2)CC1` [Cpd 828], the Kd at mutant MGL (setting [2]) is 2.63 µM. In assay [1], this compound displayed an IC50 of 3730 nM.
Take `O=C(c1nccs1)N1CCN(C2CN(C(=O)c3cccc4oc(-c5cccc(Cl)c5)nc34)C2)CC1` [Cpd 1191]: on mutant MGL (setting [5]), the Kd was 0.011 µM. In assay [1], this compound came in with an IC50 of 105 nM.
For the compound `O=C(c1ccc(-n2cnc3ccccc32)cc1)N1CCN(C2CN(C(=O)c3ccccc3)C2)CC1` [Cpd 610], the Kd at mutant MGL (setting [2]) was found to be 1.29 µM. In assay [1], this compound yielded an IC50 of 10300 nM.
The like results for `O=C(c1ccc(Cl)nc1)c1c[nH]c2cc(C(=O)N3CC(N4CCN(C(=O)c5nccs5)CC4)C3)ccc12` [Cpd 949] were, in that order, 0.178 µM and 163 nM.
